From patent publication US20110257074A1, “METHOD FOR THE PURIFICATION OF SUBSTITUTED CYCLOPENT-2-EN-1-ONE CONGENERS AND SUBSTITUTED 1,3-CYCLOPENTADIONE CONGENERS FROM A COMPLEX MIXTURE USING COUNTERCURRENT SEPARATION” (Metaproteomics, LLC, priority 2008, published 2011)

What was measured:
[1] = Shake-flask liquid distribution ratio (Kd), Hexane:Water:Buffer 10:9:1 solvent system; type: physicochemical
Description: Several shake-flask experiments were conducted to test several solvent systems and determine the liquid distribution ratio (Kd) and partition coefficient values for optimal separations. Partition coefficient values derived from shake-flask experiments are a reliable predictor of countercurrent chromatographic behavior. Kd is the concentration of the analyte in the upper phase divided by the concentration of the analyte in the lower phase and, in the alternative, may be listed as Ku/l.
General Procedure and Parameters for Shake Flask Experiments: Addition of 1 mL of the stock buffer at a known pH. Addition of the other necessary solvents to make up the system. Addition of the analyte mixture dissolved in hexane at 400 mg/mL. Final analyte concentration in the shake flask is 0.1 mg/mL. The flask was capped and mixed (by a vortex mixer) for 10 seconds. An aliquot was taken from the upper phase for HPLC analysis, and additionally a separate aliquot was taken from the lower phase for HPLC analysis from each flask. Each component was analyzed by HPLC and integrated using Shimadzu Class VP Software version 7.3 SP1.

[2] = Partition coefficient in trial HSCCC countercurrent separations of THIAA; type: physicochemical
Description: All HSCCC experimentation was conducted on a CCC-1000 J-type three-coiled planetary motion HSCCCC (Pharma-Tech Research Corp., Baltimore, Md., USA). The rotation radius is 7.5 cm, and 3×108 mL PTFE Teflon coils with an inner diameter of 1.6 mm, an outer diameter of 2.7 mm, and beta values of 0.47 to 0.73 for all coils. This was coupled with Shimadzu (Kyoto, Japan) liquid chromatography instrumentation: LC-20AT pump, DGU-20A5 degasser, CBM-20A controller, and SPD-10AV UV detector. A preparative Rheodyne (Rohnert Park, Calif. USA) 3725i-038 injector was in line with a 3.8 mL sample loop (changed to 10 mL for entry 7). The sample was monitored at 254 nm and 314 nm during the course of the run.
KU/L values for THIAA were determined in a variety of HEMWat solvent systems according to the shake-flask partitioning assay. Two solvent systems, referred to as A and B, provided K values within the range 1.5-2.5 and with significant differences between THIAA congeners (•K). For these reasons solvent systems A and B were selected for further development on the HSCCC (Table 9). […] The entries in Table 10 correspond to seven trial THIAA HSCCC purifications; entries 1-3 were conducted using solvent system A; entries 4-7 used solvent system B. Because of the difference in THIAA concentration between the shake-flask assay (0.1 mg/mL, 0.273 mM) and the HSCCC sample loop (100 mg/mL; 273 mM), aqueous phase buffer concentrations of 1.2 M (entries 1-3, Table 10) and 555 mM (entries 4-7, Table 10) were employed for the HSCCC trials. Entry 3 in Table 10 uses a bi-phasic sample-loop injection (solvent C, Table 9) consisting of 1.9 mL of upper phase (200 mg/mL THIAA, 0.55M) and 1.9 mL of lower phase (6.5M NH4HAc aq.). A switching volume was employed in entries 2, 6 and 7 in order to assess the elution-extrusion protocol as reported by Pauli et al.
Entries 4 & 5 Table 10, examine the effect of increasing the pH for solvent system B on the resolution between THIAA congeners. We reasoned that increased pH leads to a greater concentration of the ionized form of the THIAA (conjugate base) thus resulting in greater amounts of THIAA retained in the aqueous stationary phase i.e., increased retention volume (Vr).

[3] = trial 1, solvent system A, ascending elution, 680 rpm, 4 mL/min, 3.8 mL sample loop
[4] = trial 2, solvent system A, switching volume 320 mL, ascending elution, 680 rpm, 4 mL/min
[5] = trial 3, solvent system A, bi-phasic sample-loop injection (1.9 mL solvent system C), ascending elution
[6] = trial 4, solvent system B′, ascending elution, 680 rpm, 4 mL/min
[7] = trial 5, solvent system B, ascending elution, 680 rpm, 4 mL/min
[8] = trial 6, solvent system B, switching volume 600 mL, ascending elution
[9] = trial 7, solvent system B, switching volume 520 mL, 1.0 g raw material loaded, 10 mL sample loop

| Structure (SMILES) | THIAA K Value ([1]; pH 4.9, Aug. 5, 2008) | THIAA K Value ([1]; pH 5.5, Aug. 5, 2008) | THIAA K Value ([1]; pH 5.6, Aug. 5, 2008) | THIAA K Value ([1]; pH 6.0, Aug. 5, 2008) | Partition Coefficient [2, 3] | Partition Coefficient [2, 4] | Partition Coefficient [2, 5] | Partition Coefficient [2, 6] | Partition Coefficient [2, 7] | Partition Coefficient [2, 8] | Partition Coefficient [2, 9] |
| --- | --- | --- | --- | --- | --- | --- | --- | --- | --- | --- | --- |
| CCC(C)C(=O)C1=C(O)[C@@](O)(C(=O)CCC(C)C)[C@H](CCC(C)C)C1=O (single isomer, unassigned; (+)) [TH4] | 55.6 | 16.1 | 11.0 | 5.5 | 1.0 | 1.0 | 1.1 | 0.6 | 0.8 | 0.8 | 0.8 |
| CC(C)CCC(=O)[C@]1(O)C(O)=C(C(=O)C(C)C)C(=O)[C@H]1CCC(C)C [TH1, (+)-(4R,5S)-3,4-dihydroxy-2-isobutyryl-5-(3-methylbutyl)-4-(4-methylpentanoyl)cyclopent-2-en-1-one] | 16.5 | 4.2 | 3.0 | 1.5 | 2.0 | 2.0 | 2.1 | 1.7 | 2.5 | 2.7 | 2.6 |
| CC(C)CCC(=O)[C@@]1(O)C(O)=C(C(=O)C(C)C)C(=O)[C@H]1CCC(C)C [TH2, (−)-(4S,5S)-3,4-dihydroxy-2-isobutyryl-5-(3-methylbutyl)-4-(4-methylpentanoyl)cyclopent-2-en-1-one] | 10.8 | 2.5 | 1.8 | 0.9 |  |  |  |  |  |  |  |
| CC(C)CCC(=O)[C@]1(O)C(O)=C(C(=O)CC(C)C)C(=O)[C@H]1CCC(C)C [TH5, (+)-(4R,5S)-3,4-dihydroxy-2-(3-methylbutanoyl)-5-(3-methylbutyl)-4-(4-methylpentanoyl)cyclopent-2-en-1-one] | 32.8 | 9.5 | 6.6 | 3.3 | 1.4 | 1.4 | 1.4 | 0.9 | 1.3 | 1.3 | 1.5 |
| CCC(C)C(=O)C1=C(O)C(O)(C(=O)CCC(C)C)C(CCC(C)C)C1=O (stereo not drawn) [TH3, trans tetra ad-isoalpha acid] | 60.3 | 17.8 | 11.4 | 5.5 |  |  |  |  |  |  |  |
